From ChEMBL document CHEMBL2163192, “N,N-Dimethyl-[9-(arylsulfonyl)-2,3,4,9-tetrahydro-1H-carbazol-3-yl]amines as novel, potent and selective 5-HT₆ receptor antagonists” (Bioorg Med Chem Lett, 2012)

Target: 5-hydroxytryptamine receptor 6 (Homo sapiens, UniProt P50406)
Experiment: Displacement of [3H]LSD from human cloned 5-HT6 receptor expressed in HEK293 cells
Type: cell-based

5-hydroxytryptamine receptor 6, sequence (P50406 whole entry): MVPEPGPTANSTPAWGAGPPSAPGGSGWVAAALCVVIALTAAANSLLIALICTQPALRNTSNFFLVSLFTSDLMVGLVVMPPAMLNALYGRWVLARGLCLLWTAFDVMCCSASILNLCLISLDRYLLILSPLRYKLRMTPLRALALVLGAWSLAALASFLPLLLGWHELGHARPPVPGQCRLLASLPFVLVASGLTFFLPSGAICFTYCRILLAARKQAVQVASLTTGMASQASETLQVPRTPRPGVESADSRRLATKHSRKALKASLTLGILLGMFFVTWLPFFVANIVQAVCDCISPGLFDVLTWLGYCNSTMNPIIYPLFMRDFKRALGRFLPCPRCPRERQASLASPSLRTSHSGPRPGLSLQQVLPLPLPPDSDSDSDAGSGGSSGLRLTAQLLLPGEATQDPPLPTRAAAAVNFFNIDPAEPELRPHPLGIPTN

| Compound | Ki [nM] |
| --- | --- |
| Cc1ccc(S(=O)(=O)n2c3c(c4ccccc42)CC(N(C)C)CC3)cc1 (racemic) | 8.28 |
| CN(C)C1CCc2c(c3cc(Br)ccc3n2S(=O)(=O)c2cc(C(F)(F)F)ccc2Cl)C1 (racemic) | 70.6 |
| CN(C)C1CCc2c(c3ccccc3n2S(=O)(=O)c2ccc(Br)cc2)C1 (racemic) | 15.5 |
| CSc1ccc2c(c1)c1c(n2S(=O)(=O)c2ccccc2)CCC(N(C)C)C1 (racemic) | 4.57 |
| CN(C)C1CCc2c(c3cc(Cl)ccc3n2S(=O)(=O)c2cccc(C(F)(F)F)c2)C1 (racemic) | 12.2 |
| CN(C)C1CCc2c(c3ccccc3n2S(=O)(=O)c2ccccc2Br)C1 (racemic) | 2.85 |
| CN(C)C1CCc2c(c3cc(F)cc(F)c3n2S(=O)(=O)c2ccccc2)C1 (racemic) | 7.95 |
| CN(C)C1CCc2c(c3ccccc3n2S(=O)(=O)c2ccccc2)C1 (racemic) | 8.82 |
| CC(C)c1ccc(S(=O)(=O)n2c3c(c4cc(Br)ccc42)CC(N(C)C)CC3)cc1 (racemic) | 7.5 |
| COc1ccc2c(c1)c1c(n2S(=O)(=O)c2cccc(C(F)(F)F)c2)CCC(N(C)C)C1 (racemic) | 3.71 |
| CNC1CCc2c(c3cc(OC)ccc3n2S(=O)(=O)c2cccc(C(F)(F)F)c2)C1 (racemic) | 13.1 |
| NC1CCc2c(c3ccccc3n2S(=O)(=O)c2cccc(C(F)(F)F)c2)C1 (racemic) | 73.4 |
| CSc1ccc2c(c1)c1c(n2S(=O)(=O)c2cccc(Cl)c2)CCC(N(C)C)C1 (racemic) | 2.68 |
| CN(C)C1CCc2c(c3cc(Br)ccc3n2S(=O)(=O)c2ccc(F)c(F)c2F)C1 (racemic) | 61.2 |
| CN(C)C1CCc2c(c3cc(F)ccc3n2S(=O)(=O)c2ccccc2Br)C1 (racemic) | 5.02 |
| CN(C)C1CCc2c(c3cc(Cl)ccc3n2S(=O)(=O)c2ccc(Br)cc2)C1 (racemic) | 41.1 |

| Compound | Ki [nM] |
| --- | --- |
| CN(C)C1CCc2c(c3ccccc3n2S(=O)(=O)c2ccccc2F)C1 (racemic) | 10.4 |
| COc1ccc(S(=O)(=O)n2c3c(c4ccccc42)CC(N(C)C)CC3)cc1 (racemic) | 20.4 |
| COc1ccc2c(c1)c1c(n2S(=O)(=O)c2ccccc2F)CCC(N(C)C)C1 (racemic) | 3.63 |
| COc1ccc(S(=O)(=O)n2c3c(c4cc(OC)ccc42)CC(N(C)C)CC3)cc1 (racemic) | 19.8 |
| COc1ccc2c(c1)c1c(n2S(=O)(=O)c2cccc(C(F)(F)F)c2)CCC(N)C1 (racemic) | 39.1 |
| CN(C)C1CCc2c(c3ccccc3n2S(=O)(=O)c2ccccc2Cl)C1 (racemic) | 9.15 |
| Cc1ccc(S(=O)(=O)n2c3c(c4cc(Cl)ccc42)CC(N(C)C)CC3)cc1 (racemic) | 18.1 |
| COc1ccc2c(c1)c1c(n2S(=O)(=O)c2ccccc2Cl)CCC(N(C)C)C1 (racemic) | 4.68 |
| CN(C)C1CCc2c(c3cc(Cl)ccc3n2S(=O)(=O)c2ccccc2Br)C1 (racemic) | 8.13 |
| CN(C)C1CCc2c(c3cc(Br)ccc3n2S(=O)(=O)c2cccc(C(F)(F)F)c2)C1 (racemic) | 5.5 |
| COc1ccc(S(=O)(=O)n2c3c(c4cc(Br)ccc42)CC(N(C)C)CC3)cc1 (racemic) | 29 |
| COc1ccc(S(=O)(=O)n2c3c(c4cc(SC)ccc42)CC(N(C)C)CC3)cc1 (racemic) | 6.89 |
| CN(C)C1CCc2c(c3cc(Br)ccc3n2S(=O)(=O)c2ccc(F)c(F)c2)C1 (racemic) | 29 |
| CN(C)C1CCc2c(c3cc(F)ccc3n2S(=O)(=O)c2cccc(Cl)c2)C1 (racemic) | 5.01 |
| CNC1CCc2c(c3ccccc3n2S(=O)(=O)c2cccc(C(F)(F)F)c2)C1 (racemic) | 17.1 |
| CN(C)C1CCc2c(c3cc(Cl)ccc3n2S(=O)(=O)c2ccccc2)C1 (racemic) | 16.1 |
